Results as given in patent publication US20120208204A1, “Compositions and Methods for Inhibiting Tumor Growth” (The Brigham and Women's Hospital, Inc., priority 2009, published 2012).
Where two headings read alike, the source gives them in different places.

Assays:
PAK3 = target: T1, PAK3 (Homo sapiens, UniProt O75914); test: Enzyme based PAK3 kinase assay (HTRF / TR-FRET), IC50; type: biochemical; conditions: PAK3 inhibitory compounds; IC50 done in quadruplicate
T1 construct: Recombinant human full length PAK3 enzyme was obtained (Invitrogen); purchased Invitrogen
Method: Recombinant human full length PAK3 enzyme was obtained (Invitrogen), immediately aliquoted and kept in storage buffer as purchased at −80° C. for long term storage. The HTRF® KinEASE™ kit (CisBio) containing 5× stock solution of the enzymatic buffer and 1× detection buffer, STK substrate 2-biotin (S2), a phosphospecific monoclonal Europium-labeled Cryptate antibody, which recognizes a phospholylation epitope of the biotinylated peptide, as donor fluorophore and Stretptavadin-linked XL665 (SA-XL665) representing the acceptor fluorophor were used for TR-FRET assays. The compound library consisted of approximately 125,000 small molecules, including compounds approved by the Food and Drug Administration (FDA), a purified natural products library and commercially available compounds from various vendors. All small molecules generally adhere to Lipinski's rules and have been optimized for maximization of molecular diversity.
An enzyme based kinase assay was carried out using full length recombinant PAK3 kinase. A model biotinylated peptide RRRSLLE (SEQ ID NO:5) was used as the substrate. Detection was done by Homogeneous Time Resolve Fluorescence (HTRF) with an antibody that recognizes the phosphorylation site on the peptide.
TR-FRET assays were carried out as follows. A CRS CataLyst Express robotic arm and a Cybi-well 384 channel simultaneous pipettor were used to carry out the High-Throughput Screen. Kinase reactions were performed in 50 mM HEPES, pH 7.0, 0.02% NaN3, 2 mM MgCl2, 0.01% BSA, 0.1 mM Orthonanadate, 1 mM DTT, 0.001% Tween-20, 0.001% Brij-35 using ProxiPlate-384 Plus white assay plates. […] The kinase reaction was initiated by addition of […] per reaction (25 μM ATP final, at the Km). The reaction was incubated for 30 minutes at room temperature. Reaction was terminated by addition of 10 μl of a premixed solution of EDTA, Europium cryptate-labeled antibody and fluorophore-conjugated streptavadin. After overnight incubation at room temperature, TR-FRET measurements were performed using a PHERAstar HTS microplate reader, and were expressed as ratios of acceptor fluorescence at 665 nm over donor fluorescence at 620 nm.
(§1) Data were analyzed using GraphPad Prism Version 5 (GraphPad Software Inc., La Jolla, Calif., USA). Each compound plate included one column of negative controls, were no enzyme was added, and another column for positive controls when no inhibitor compound was added; these were used to calculate Z′ factors and signal to noise ratios throughout the screen. […] IC50 determinations were done in quadruplicate for each compound using different adding sequences for compound and enzyme-substrate-mix. EC50 determinations were done in triplicate for each compound using different time points. For calculation of IC50 and EC50 concentrations, respectively, mean inhibition dose response curves were fitted to the sigmoidal response equation: Y=Bottom+(Top−Bottom)/(1+10̂((X−LogIC50))) were X is log(compound concentration) and Y is % inhibition, and Bottom and Top are the lower and upper plateau. Km concentrations were determined by non-linear regression curve fitting, using the equation: Y=Vmax*X/(Km+X), where X is the substrate concentration.

HeLa cells = test: Cell-based assay in HeLa cells (AlamarBlue cell viability), EC50; parameters: species or system human
Method: HeLa cells (ATCC) were maintained in Dulbecco's modified Eagle medium (DMEM) supplemented with 10% fetal bovine serum and 1% Penicillin/Streptomycin. Approximately 200 to 500 cells per well were seeded in a 96 well tissue culture plates. Following 24 h growth in normal DMEM, the individual compounds were warmed up to room temperature and diluted in DMEM to their according concentration and then immediately added to the wells. One column on each assay plate contained DMEM only (“neg. control”) and one column contained untreated HeLa cells as “pos. control”. Cells were treated with the compounds at various cell densities and for treatment periods ranging between 75 hrs and approx. 200 hrs. To control for cell viability, we assayed plates using AlamarBlue° (Invitrogen), which uses a redox reaction to measure metabolically active viable cells. At each time point the culture media was removed and a solution of 10% AlamarBlue reagent and DMEM was added to each well to measure cell viability. Fluorescence was measured after 1-2 hrs incubation at 37 C on a Victor^2 Plate Reader (PerkinElmer).
as §1
Compounds were tested in a cell-based assay (HeLa cells). IC50 and EC50 are expressed in micromolar units.

SGK2 = test: Inhibition of kinase activity by SGK2 inhibitory compounds, single concentration; type: biochemical; conditions: 10 μM compound
Source text: A library of compounds was screened for inhibitors of SGK2 and PAK3 activity by assaying phosphorylation of a generic peptide substrate either directly; or indirectly by inhibiting upstream kinase PDK1 from activating the enzyme in vitro. In both cases, the phosphorylated substrate was detected using a specific anti-phospho peptide antibody that is coupled with Eu^3+ Cryptate and XL665 conjugated with streptavidin. […] All initial hits were re-assayed as a dose response series with eight 3-fold dilutions and resulting final concentrations ranged from 0.9 nM to 20 μM.

[1] = 75 h treatment, read-out: EC50 75 h
[2] = 150 h treatment, read-out: EC50 150 h
[3] = read-out: EC50 100 h, 100 h treatment

T1 sequence (O75914 1-544 isoform O75914-2): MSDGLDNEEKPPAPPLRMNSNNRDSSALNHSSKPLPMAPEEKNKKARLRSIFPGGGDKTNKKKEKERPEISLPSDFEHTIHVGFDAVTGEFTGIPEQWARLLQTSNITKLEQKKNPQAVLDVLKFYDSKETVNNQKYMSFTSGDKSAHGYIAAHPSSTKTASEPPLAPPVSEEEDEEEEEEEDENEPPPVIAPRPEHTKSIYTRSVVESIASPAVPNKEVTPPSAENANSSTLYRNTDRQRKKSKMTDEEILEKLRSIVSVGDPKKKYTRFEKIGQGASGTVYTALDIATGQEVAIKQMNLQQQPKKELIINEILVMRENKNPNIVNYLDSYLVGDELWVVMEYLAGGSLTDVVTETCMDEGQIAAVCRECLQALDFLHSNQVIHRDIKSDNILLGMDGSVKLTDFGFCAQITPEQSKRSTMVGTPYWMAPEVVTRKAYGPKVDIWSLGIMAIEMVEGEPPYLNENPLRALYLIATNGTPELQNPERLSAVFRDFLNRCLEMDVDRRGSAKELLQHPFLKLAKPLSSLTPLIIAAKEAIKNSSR

% Inhibition at 10 μM (SGK2)	SMILES	also measured
	Cc1ccc(-c2c(C#N)c(SCC(=O)c3ccc(O)c(O)c3)nc3c2CCCC3)o1 [LDN-0026056]	IC50 (PAK3): 0.69 µM; EC50 (HeLa cells; [1]): 13.9 µM; EC50 (HeLa cells; [2]): 18 µM; EC50 (HeLa cells; [3]): 16.9 µM
87%	N#Cc1c(N)nc(SCc2ccccc2)c(C#N)c1-c1ccc(O)cc1 [LDN-0028618]	IC50 (PAK3): 0.3 µM; EC50 (HeLa cells; [1]): 13.3 µM; EC50 (HeLa cells; [2]): 18.1 µM; EC50 (HeLa cells; [3]): 16.6 µM
95%	Cc1cc(-c2ccco2)c(C#N)c(SCC(=O)c2ccc(O)c(O)c2)n1 [LDN-0041012]	IC50 (PAK3): 0.61 µM; EC50 (HeLa cells; [1]): 4.6 µM; EC50 (HeLa cells; [2]): 3.4 µM; EC50 (HeLa cells; [3]): 4.6 µM
79%	COc1ccc(-c2nc(-c3ccc(Sc4ccccc4)cc3)c(-c3ccccc3)[nH]2)cc1 [LDN-0044878]	IC50 (PAK3): 0.03 µM; EC50 (HeLa cells; [1]): 10.7 µM; EC50 (HeLa cells; [2]): 11.1 µM; EC50 (HeLa cells; [3]): 15.5 µM
84%	Oc1cccc2ccc(Nc3ccccn3)nc12 [LDN-0088017]	
67%	O=C(O)C1C2CC=CC2c2cc(Br)cc3c2N1CC1CC=CC31 (stereo not shown) [LDN-0088050]	
80%	c1coc(C2=Nc3cccc4cccc(c34)N2)c1 [LDN-0088682]	
	Cc1nc(-c2ccccc2)c(-c2ccccc2)[nH]1 [LDN-0091420]	IC50 (PAK3): 10.1 µM; EC50 (HeLa cells; [1]): 38.2 µM; EC50 (HeLa cells; [2]): 42.5 µM; EC50 (HeLa cells; [3]): 40.7 µM
78%	CCOc1ccc(NC(=O)CSc2ncnc3c2oc2ccccc23)cc1 [LDN-0094202]	
79%	Cc1cc(N)c2ccccc2[n+]1CCCCCCCCCC[n+]1c(C)cc(N)c2ccccc21.[Cl-].[Cl-] [LDN-0096422]	
73%	O=C(O)c1cc(O)c(=O)c2c(O)c(O)ccc2c1 [LDN-0096503]	
70%	C=C1c2cccc(O)c2C(=O)C2=C(O)C3(O)C(=O)C(C(N)=O)=C(O)C(N(C)C)C3C(O)C12.Cl (stereo not shown) [LDN-0096663]	
67%	O=c1cc(-c2ccccc2)oc2cc(O)c(O)c(O)c12 [LDN-0096673]	
84%	Oc1cc(O)c2c(c1)OC(O)(c1ccc(O)c(O)c1)C(O)C2 (stereo not shown) [LDN-0096696]	
93%	O=C(OC1Cc2c(O)cc(O)cc2OC1c1ccc(O)c(O)c1)c1cc(O)c(O)c(O)c1 (stereo not shown) [LDN-0096721]	
94%	O=c1c(O)cccc2cc(O)c(O)c(O)c12 [LDN-0096727]	
87%	O=c1c(O)cccc2ccc(O)c(O)c12 [LDN-0096728]	
96%	CC(=O)Oc1cc(-c2coc3cc(OC(C)=O)c(OC(C)=O)c(OC(C)=O)c3c2=O)cc(OC(C)=O)c1OC(C)=O [LDN-0096738]	
89%	O=c1cc(C2Oc3cc(O)cc(O)c3CC2O)cc2c(C3Oc4cc(O)cc(O)c4CC3O)cc(O)c(O)c2c1O (stereo not shown) [LDN-0096771]	

% Inhibition at 10 μM (SGK2)	SMILES	also measured
97%	O=c1c(-c2cc(O)c(O)c(O)c2)coc2cc(O)c(O)c(O)c12 [LDN-0096812]	
91%	Oc1cc2c(cc1O)C1c3ccc(O)c(O)c3OCC1(O)C2 (stereo not shown) [LDN-0096990]	
68%	Oc1cc(O)c2c(c1)OC(c1cc(O)c(O)c(O)c1)C(O)C2 (stereo not shown) [LDN-0097128]	
76%	C=C1c2c(Cl)ccc(O)c2C(=O)C2=C(O)C3(O)C(=O)C(C(N)=O)=C(O)C(N(C)C)C3C(O)C12.O=C(O)c1cc(S(=O)(=O)O)ccc1O (stereo not shown) [LDN-0097423]	
85%	O=c1oc2c(O)c(O)cc3c(=O)oc4c(O)c(O)cc1c4c23 [LDN-0097519]	
93%	O=C1C=C2CC3(O)COc4c(ccc(O)c4O)C3=C2C=C1O (stereo not shown) [LDN-0097524]	
85%	O=C(OCC1OC(OC(=O)c2cc(O)c(O)c(OC(=O)c3cc(O)c(O)c(O)c3)c2)C(OC(=O)c2cc(O)c(O)c(OC(=O)c3cc(O)c(O)c(O)c3)c2)C(OC(=O)c2cc(O)c(O)c(OC(=O)c3cc(O)c(O)c(O)c3)c2)C1OC(=O)c1cc(O)c(O)c(OC(=O)c2cc(O)c(O)c(O)c2)c1)c1cc(O)c(O)c(OC(=O)c2cc(O)c(O)c(O)c2)c1 (stereo not shown) [LDN-0097728]	
87%	O=c1cc(-c2cc(O)c(O)c(O)c2)oc2cc(O)cc(O)c12 [LDN-0097731]	
67%	CCc1cc(-c2n[nH]cc2-c2ccc(Br)cc2)c(O)cc1O [LDN-0106197]	
73%	O=C(CSc1ncnc2c1oc1ccccc12)Nc1ccccc1 [LDN-0107896]	
66%	COc1ccc(NC(=O)CSc2ncnc3c2oc2ccccc23)cc1 [LDN-0107905]	
67%	Cc1cccc(NC(=O)CSc2ncnc3c2oc2ccccc23)c1C [LDN-0107915]	
60%	O=C(Nc1cccc(-c2cscn2)c1)C1CCN(Cc2cccc(-c3ccco3)c2)CC1 [LDN-0117557]	
62%	Cc1ccc(NC(=O)Cn2cc(C(=O)c3ccccc3)c(=O)c3ccc(C)nc32)cc1 [LDN-0130103]	
70%	Cc1ccc2c(=O)c(C(=O)c3ccccc3)cn(CC(=O)Nc3cccc(C)c3C)c2n1 [LDN-0130105]	
	Cc1cc(C)c(C#N)c(SCC(=O)c2ccc(O)c(O)c2)n1 [LDN-0211955]	IC50 (PAK3): 3.53 µM; EC50 (HeLa cells; [1]): 17.6 µM; EC50 (HeLa cells; [2]): 23.3 µM; EC50 (HeLa cells; [3]): 34 µM
	N#Cc1c(N)nc(SCc2ccccc2)c(C#N)c1-c1ccccc1Cl [LDN-0211958]	IC50 (PAK3): 0.33 µM; EC50 (HeLa cells; [1]): 11.2 µM; EC50 (HeLa cells; [2]): 10.6 µM; EC50 (HeLa cells; [3]): 11.6 µM
	Cc1ccccc1-c1c(C#N)c(N)nc(SCc2ccccc2)c1C#N [LDN-0211959]	IC50 (PAK3): 0.28 µM; EC50 (HeLa cells; [1]): 11.1 µM; EC50 (HeLa cells; [2]): 10.4 µM; EC50 (HeLa cells; [3]): 12.7 µM
